Data on 1 molecule can be found in publication doi:10.1101/2022.02.21.481260v1 (biorxiv, 2022).

This experiment addresses T1, hFAP (recombinant human Fibroblast Activation Protein) (Homo sapiens, UniProt Q12884).
T1 sequence (Q12884 26-760 limits assumed): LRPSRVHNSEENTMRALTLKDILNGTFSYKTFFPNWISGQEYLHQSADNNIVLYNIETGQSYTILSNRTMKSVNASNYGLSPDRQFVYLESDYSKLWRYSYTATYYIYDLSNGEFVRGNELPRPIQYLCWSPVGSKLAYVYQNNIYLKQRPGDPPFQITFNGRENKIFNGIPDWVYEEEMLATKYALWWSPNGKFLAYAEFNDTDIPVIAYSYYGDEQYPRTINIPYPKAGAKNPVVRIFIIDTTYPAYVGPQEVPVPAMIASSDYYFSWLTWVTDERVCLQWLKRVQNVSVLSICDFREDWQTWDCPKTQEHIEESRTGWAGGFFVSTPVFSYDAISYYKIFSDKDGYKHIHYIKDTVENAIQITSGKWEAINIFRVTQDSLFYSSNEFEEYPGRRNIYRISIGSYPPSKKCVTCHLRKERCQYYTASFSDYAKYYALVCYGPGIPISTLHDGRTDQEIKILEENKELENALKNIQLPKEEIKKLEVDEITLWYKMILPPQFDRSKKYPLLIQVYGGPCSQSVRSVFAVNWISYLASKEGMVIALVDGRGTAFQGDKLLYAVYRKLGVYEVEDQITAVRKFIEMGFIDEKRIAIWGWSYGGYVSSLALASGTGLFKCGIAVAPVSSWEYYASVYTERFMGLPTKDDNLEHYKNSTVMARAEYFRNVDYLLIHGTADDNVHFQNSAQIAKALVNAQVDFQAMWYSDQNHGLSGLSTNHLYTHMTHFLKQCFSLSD
The experiment in a line: biochemical.

Molecules are shown by their SMILES. pIC50: −log10 of the molar value.

As for `N#C[C@@H]1CC(F)(F)CN1C(=O)CNC(=O)c1ccnc2c(NC(=O)CCC(=O)NCCNC(=O)CCC(C(=O)O)N3CCN(CC(=O)O)CCN(CC(=O)O)CCN(CC(=O)O)CC3)cccc12` (stereo partly shown) [compound 1, OncoFAP-DOTAGA], the pIC50 is 9.40.
